These results are taken from patent US11897876B2, “Isoxazolidines as RIPK1 inhibitors and use thereof” (GENZYME CORPORATION, priority 2022, dated 2024).

The structures appear in SMILES notation. Like-named read-outs stand apart in the source and are kept apart here.

The assay concerns U937 cells. In words: Cellular assay in U937 cells, TNFα/zVAD.fmk-induced cell death (necroptosis), MTS readout. It counts as cell-based. Particulars: Homo sapiens, U-937. The source says: Cellular Assay in U937 Cells to Measure the Activity of RIPK1-Inhibitors on Cell Death (Necroptosis).
Upon TNF-Receptor I ligation, Ser/Thr kinase RIPK1 is recruited to a transient receptor complex I. Upon modification of RIPK1 which promotes activation of RIPK1, complex […] can form, that involves recruitment of RIPK3 and MLKL (mixed lineage-kinase domain-like protein) which then translocates from the cytosol to the plasma membrane to execute cell death (Cai, Z. et al, Nat. Cell Biol. (2014)16:55-65).
Cell death was quantified in 96 well plates by determination of the amount of live cell using a CellTiter 96 AQueous reagent (Promega), a calorimetric method to measure the amount of live cells by reducing tetrazolium compound [3-(4,5-dimethylthiazol-2-yl)-5-(3-carboxymethoxyphenyl)-2-(4-sulfophenyl)-2H-tetrazolium, inner salt; MTS] into formazan. Absorbance of formazan was read at 490 nm. The inhibitory activity of the test compound was quantified in a concentration response curve (CRC) experiment. Compounds were obtained as 10 mM stock solutions and were diluted 1 to 10 volumes with DMSO to yield a 1 mM solution. From this solution 2 μl were diluted with 998 μl growth medium. 100 μl of 2 μM compound solution was further diluted sequentially with a dilution factor of 2.5 by adding 150 μl growth medium. A total of 10 concentrations were tested ranging from 10 μM to 0.26 nM or from 1 μM to 0.07 nM.
U937 cells were cultured in RPM11640 Glutamax and 10% heat inactivated FBS. 50 μl cell suspension containing 1×10^6 cells/ml supplemented with 50 μM zVAD.fmk (Benzyloxycarbonyl-Val-Ala-Asp (OMe) fluoromethylketone) and 100 ng/ml recombinant human TNFα were dispensed in each well of a 96-well plate. 50 μl of compound dilutions (see above) were added and the cell suspension incubated overnight (18 to 24 hrs) at 37° C., 5% CO2 in a humidified atmosphere (95% rH). High (no compound) and low control (no TNFα, zVAD.fmk) were tested with 7 replicates; all compound concentrations were tested in duplicates on each experimental plate.
CellTiter 96 Aqueous reagent was mixed (100 μl PMS (phenazine methosulfate) solution/2 ml MTS (3-(4,5-[…])-5-(3-carboxymethoxyphenyl)-2-(4-sulfophenyl)-2H-tetrazolium, inner salt) solution) and 20 μl were added per well. After 4 hrs incubation at 37° C. (5% CO2 95% rH) optical density was measured at 490 nm on a microplate reader (Tecan Infinite M1000).
The % inhibition is expressed as percentage of the maximal inhibition value obtained in the absence of TNFα/zVAD.fmc.

[1] abbreviates: U937 cells, 100 ng/ml TNFα + 50 μM zVAD.fmk, overnight (18 to 24 hrs), read-out: U937 IC50.
[2] abbreviates: own data, read-out: IC50 (U937).

`O=C(C1CCN(c2nccc(-c3ccccc3)n2)CC1)N1N=CCC1c1ccccc1` (centres unmarked) [Comparator Example A, (3-Phenyl-3,4-dihydropyrazol-2-yl)-[1-(4-phenylpyrimidin-2-yl)-4-piperidyl]methanone, reference compound]: the IC50 is, setting by setting: under setting [1], 8 nM; under setting [2], 8 nM.

`O=C(C1CCN(c2nccc(-c3ccccc3)n2)CC1)N1OCC[C@H]1c1ccccc1` [Comparator Example B, [(3S)-3-Phenylisoxazolidin-2-yl]-[1-(4-phenylpyrimidin-2-yl)-4-piperidyl]methanone, reference compound]: the IC50 under setting [1] was 9.4 nM and the IC50 under setting [2] came to 9 nM. In the case of `Cc1nnc(-c2cc(N3CCC(C(=O)N4N=CC[C@H]4c4ccccc4)CC3)ncn2)o1` [Comparator Example C, [1-[6-(5-Methyl-1,3,4-oxadiazol-2-yl)pyrimidin-4-yl]-4-piperidyl]-[(3S)-3-phenyl-3,4-dihydropyrazol-2-yl]methanone, reference compound], the IC50 is 59 nM under setting [1] and 59 nM (own data, read-out: pIC50 (U937) (converted)). In the case of `Cc1nnc(-c2cc(N3CCC(C(=O)N4OCC[C@H]4c4ccccc4)CC3)ncn2)o1` [Comparator Example D, [1-[6-(5-Methyl-1,3,4-oxadiazol-2-yl)pyrimidin-4-yl]-4-piperidyl]-[(3S)-3-phenylisoxazolidin-2-yl]methanone, reference compound], the IC50 by setting is: under setting [1], 92 nM; under setting [2], 92 nM.

In the case of `Cc1nnc(-c2cc(N3CCC(C(=O)N4OCC[C@H]4c4cc(F)cc(C#N)c4)CC3)ncn2)o1` [Comparator Example E, 3-Fluoro-5-[(3S)-2-[1-[6-(5-methyl-1,3,4-oxadiazol-2-yl)pyrimidin-4-yl]piperidine-4-carbonyl]isoxazolidin-3-yl]benzonitrile, reference compound], the IC50 stood at 197 nM under setting [1] and 197 nM under setting [2]. On to `Cc1nccn1-c1cc(N2CCC(C(=O)N3OCC[C@H]3c3cc(F)cc(C#N)c3)CC2)ncn1` [Example 1, 3-Fluoro-5-[(3S)-2-[1-[6-(2-methylimidazol-1-yl)pyrimidin-4-yl]piperidine-4-carbonyl]isoxazolidin-3-yl]benzonitrile], for which the IC50 under setting [1] was 5.9 nM. Take `Cc1c(F)cc([C@@H]2CCON2C(=O)C2CCN(c3cc(-n4ccnc4C)ncn3)CC2)cc1C#N` [Example 2, 3-Fluoro-2-methyl-5-[(3S)-2-[1-[6-(2-methylimidazol-1-yl)pyrimidin-4-yl]piperidine-4-carbonyl]isoxazolidin-3-yl]benzonitrile]: under setting [1], the IC50 was 3.8 nM. Regarding `Cn1nccc1-c1cc(N2CCC(C(=O)N3OCC[C@H]3c3cc(F)cc(C#N)c3)CC2)ncn1` [Example 3, 3-Fluoro-5-[(3S)-2-[1-[6-(2-methylpyrazol-3-yl)pyrimidin-4-yl]piperidine-4-carbonyl]isoxazolidin-3-yl]benzonitrile], the IC50 under setting [1] came to 8.1 nM. `Cn1nccc1-c1cc(N2CCC(C(=O)N3OCC[C@H]3c3cc(F)cc(F)c3)CC2)ncn1` [Example 4, [(3S)-3-(3,5-Difluorophenyl)isoxazolidin-2-yl]-[1-[6-(2-methylpyrazol-3-yl)pyrimidin-4-yl]-4-piperidyl]methanone]: the IC50 under setting [1] was determined as 5 nM. Take `Cn1nccc1-c1cc(N2CCC(C(=O)N3OCC[C@H]3c3cc(F)cc(Cl)c3)CC2)ncn1` [Example 5, [(3S)-3-(3-Chloro-5-fluoro-phenyl)isoxazolidin-2-yl]-[1-[6-(2-methylpyrazol-3-yl)pyrimidin-4-yl]-4-piperidyl]methanone]: the IC50 under setting [1] is 3 nM. Same read-out and setting: to `Cc1n[nH]cc1-c1cc(N2CCC(C(=O)N3OCC[C@H]3c3cc(F)cc(C#N)c3)CC2)ncn1` [Example 6, 3-Fluoro-5-[(3S)-2-[1-[6-(3-methyl-1H-pyrazol-4-yl)pyrimidin-4-yl]piperidine-4-carbonyl]isoxazolidin-3-yl]benzonitrile] belongs 11.7 nM.

For `Cc1nc(C2CC2)cn1-c1cc(N2CCC(C(=O)N3OCC[C@H]3c3cc(F)cc(C#N)c3)CC2)ncn1` [Example 7, 3-[(3S)-2-[1-[6-(4-Cyclopropyl-2-methyl-imidazol-1-yl)pyrimidin-4-yl]piperidine-4-carbonyl]isoxazolidin-3-yl]-5-fluoro-benzonitrile], under setting [1], the IC50 came to 3.6 nM. For the molecule `Cc1c(F)cc([C@@H]2CCON2C(=O)C2CCN(c3cc(-n4cc(C5CC5)nc4C)ncn3)CC2)cc1C#N` [Example 8, 5-[(3S)-2-[1-[6-(4-Cyclopropyl-2-methyl-imidazol-1-yl)pyrimidin-4-yl]piperidine-4-carbonyl]isoxazolidin-3-yl]-3-fluoro-2-methyl-benzonitrile], the IC50 by setting is: under setting [1], 1 nM; under setting [2], 1 nM. On to `Cc1cc(-c2cc(N3CCC(C(=O)N4OCC[C@H]4c4cc(F)cc(C#N)c4)CC3)ncn2)n(C)n1` [Example 9, 3-[(3S)-2-[1-[6-(2,5-Dimethylpyrazol-3-yl)pyrimidin-4-yl]piperidine-4-carbonyl]isoxazolidin-3-yl]-5-fluoro-benzonitrile], for which the IC50 under setting [1] is 15 nM. `Cc1ncn(-c2cc(N3CCC(C(=O)N4OCC[C@H]4c4cc(F)cc(C#N)c4)CC3)ncn2)n1` [Example 10, 3-Fluoro-5-[(3S)-2-[1-[6-(3-methyl-1,2,4-triazol-1-yl)pyrimidin-4-yl]piperidine-4-carbonyl]isoxazolidin-3-yl]benzonitrile]: the IC50 under setting [1] was 2 nM. Regarding `Cc1ncnn1-c1cc(N2CCC(C(=O)N3OCC[C@H]3c3cc(F)cc(C#N)c3)CC2)ncn1` [Example 11, 3-Fluoro-5-[(3S)-2-[1-[6-(5-methyl-1,2,4-triazol-1-yl)pyrimidin-4-yl]piperidine-4-carbonyl]isoxazolidin-3-yl]benzonitrile], the IC50 under setting [1] was determined as 9.3 nM. On to `Cn1nncc1-c1cc(N2CCC(C(=O)N3OCC[C@H]3c3cc(F)cc(C#N)c3)CC2)ncn1` [Example 12, 3-Fluoro-5-[(3S)-2-[1-[6-(3-methyltriazol-4-yl)pyrimidin-4-yl]piperidine-4-carbonyl]isoxazolidin-3-yl]benzonitrile], for which the IC50 under setting [1] came out at 7 nM. For `Cc1nccn1-c1ncnc(N2CCC(C(=O)N3OCC[C@H]3c3cc(F)cc(C#N)c3)CC2)c1F` [Example 13, 3-Fluoro-5-[(3S)-2-[1-[5-fluoro-6-(2-methylimidazol-1-yl)pyrimidin-4-yl]piperidine-4-carbonyl]isoxazolidin-3-yl]benzonitrile], under setting [1], the IC50 came out at 4.3 nM. Turning to `Cc1cnn(-c2ncnc(N3CCC(C(=O)N4OCC[C@H]4c4cc(F)c(C)c(C#N)c4)CC3)c2F)c1` [Example 14, 3-Fluoro-5-[(3S)-2-[1-[5-fluoro-6-(4-methylpyrazol-1-yl)pyrimidin-4-yl]piperidine-4-carbonyl]isoxazolidin-3-yl]-2-methyl-benzonitrile], the IC50 under setting [1] turned out to be 3.4 nM. On to `Cn1nccc1-c1ncnc(N2CCC(C(=O)N3OCC[C@H]3c3cc(F)cc(F)c3)CC2)c1F` [Example 15, [(3S)-3-(3,5-Difluorophenyl)isoxazolidin-2-yl]-[1-[5-fluoro-6-(2-methylpyrazol-3-yl)pyrimidin-4-yl]-4-piperidyl]methanone], for which, under setting [1], the IC50 was found to be 0.4 nM.
